What is called CC50 is the concentration that lowers cell viability or growth by half. In general, Papp refers to the rate of passage across a membrane or cell layer, normalised by area and donor concentration. Lower therefore signals slow passage.

In brackets after ≈: the same amount, converted by molar mass. Like-named read-outs stand apart in the source and are kept apart here.

The values that follow come from article PMC11684019, “Unveiling the Antimycobacterial Potential of Novel 4-Alkoxyquinolines: Insights into Selectivity, Mechanism of Action, and In Vivo Exposure” (Journal of Medicinal Chemistry, 2024).

Data set [1] relates to HepG2 cells. Conditions: read-out: CC50 HepG2; MTT method, 72 h. (In general: Tetrazolium assays rely on reduction of a dye to a coloured formazan, in cell work by metabolically active cells.)
Data set [2] has as its system Vero cells. Conditions: read-out: CC50 Vero; Neutral Red method, 72 h.
In data set [3] the test system is M. tuberculosis H37Rv strain. Description: microbe, parasite or virus in culture. It counts as cell-based, Mycobacterium tuberculosis.
For data set [4], the system named is M. tuberculosis strain PT2 (MDR clinical isolate). In kind it is cell-based, Mycobacterium tuberculosis.
For data set [5], the system named is Vero cells. Conditions: read-out: CC50 Vero; MTT method, 72 h.
For data set [6], the system named is M. tuberculosis strain PT20 (MDR clinical isolate). It counts as cell-based, Mycobacterium tuberculosis.
The test system of data set [7] is M. tuberculosis strain PT12 (MDR clinical isolate). It counts as cell-based, Mycobacterium tuberculosis.
Data set [8] deals with HepG2 cells. The settings on record: read-out: CC50 HepG2; Neutral Red method, 72 h.
Data set [9] in a line: Aqueous solubility (UHPLC-DAD). Conditions: 25 °C, 4 h; for Solubility pH 1.2: 0.1 M HCl solution; for Solubility pH 9.1: 0.1 M NH4HCO3 solution; for Solubility pH 7.4: PBS.
The subject of data set [10] is M. tuberculosis H37Rv strain in murine macrophage RAW 264.7 cells. In kind it is cell-based, Mycobacterium tuberculosis.
The nature of the next data set: in vitro. The settings on record: PAMPA, pH 7.4. (In PAMPA a lipid-coated filter parts donor from acceptor wells.)
The test system of a further data set is Mtb. Conditions: cited from earlier work.
Where [11] appears, read: M. tuberculosis H37Rv, resazurin-based assay.

Turning to “4-Bromo-N-(3-((6-methoxy-2-methylquinolin-4-yl)oxy)propyl)aniline [8d]”, the cytotoxic concentration (CC50) in the data set on HepG2 cells [1] was 15.3 µM; in the data set on Vero cells [2] it was 12.8 µM; in the data set with Vero cells [5], more than 20 µM; with HepG2 cells [8], 16.8 µM. This compound yielded an MIC in data set [3] (setting [11]) of 0.10 µM. Moreover, in [4], the “MIC PT2” value was less than 0.05 µM. In [6], the “MIC PT20” value was less than 0.05 µM. In [7], the “MIC PT12” value is less than 0.05 µM.
Turning to “4-Ethyl-N-(3-((6-methoxy-2-methylquinolin-4-yl)oxy)propyl)aniline [8i]”, the cytotoxic concentration (CC50) is 0.3 µM in the data set on HepG2 cells [1], 4.2 µM in the data set on Vero cells [2], less than 1 µM with Vero cells [5] and 8.1 µM in the data set on HepG2 cells [8]. The same compound had an MIC in data set [3] (setting [11]) of 0.06 µM. The “MIC PT2” value in data set [4] is less than 0.06 µM. Moreover, the “MIC PT20” value in data set [6] was less than 0.06 µM. Besides, the “MIC PT12” value in data set [7] was less than 0.06 µM.
“4-Iodo-N-(3-((6-methoxy-2-methylquinolin-4-yl)oxy)propyl)aniline [8e]”: the CC50 in the data set on HepG2 cells [1] was 10.6 µM; in the data set on Vero cells [2] it was 7.5 µM; in the data set with Vero cells [5], 8.2 µM; in the data set with HepG2 cells [8], 12.8 µM. In data set [3] (setting [11]), the MIC was 0.09 µM. The “MIC PT2” value in data set [4] is less than 0.05 µM. For the same compound, the “MIC PT20” value in [6] is less than 0.05 µM. The “MIC PT12” value in [7] is less than 0.05 µM.
For `COc1ccc2nc(C)cc(OCCCNc3ccccc3)c2c1` [8a, N-(3-((6-methoxy-2-methylquinolin-4-yl)oxy)propyl)aniline], the MIC in data set [3] (setting [11]) worked out at 0.25 µM (≈ 0.0806 µg/mL).
On the same count and under the same terms, for `COc1ccc2nc(C)cc(OCCCNc3ccc(F)cc3)c2c1` [8b, 4-Fluoro-N-(3-((6-methoxy-2-methylquinolin-4-yl)oxy)propyl)aniline] the value was 0.47 µM (≈ 0.16 µg/mL).
On the same count and under the same terms, with `COc1ccc2nc(C)cc(OCCCNc3ccc(Cl)cc3)c2c1` [8c, 4-Chloro-N-(3-((6-methoxy-2-methylquinolin-4-yl)oxy)propyl)aniline] the figure was 0.22 µM (≈ 0.0785 µg/mL); with `COc1ccc2nc(C)cc(OCCCNc3ccc(C(F)(F)F)cc3)c2c1` [8f, N-(3-((6-methoxy-2-methylquinolin-4-yl)oxy)propyl)-4-(trifluoromethyl)aniline], 3.20 µM (≈ 1.25 µg/mL); with `COc1ccc2nc(C)cc(OCCCNc3ccc(OC(F)(F)F)cc3)c2c1` [8g, N-(3-((6-methoxy-2-methylquinolin-4-yl)oxy)propyl)-4-(trifluoromethoxy)aniline], 0.20 µM (≈ 0.0813 µg/mL).
`COc1ccc2nc(C)cc(OCCCNc3ccc(C)cc3)c2c1` [8h, N-(3-((6-methoxy-2-methylquinolin-4-yl)oxy)propyl)-4-methylaniline] yielded an MIC in [3] (setting [11]) of 0.24 µM (≈ 0.0807 µg/mL).
`COc1ccc2nc(C)cc(OCCCNc3ccc(C(C)C)cc3)c2c1` [8j, 4-Isopropyl-N-(3-((6-methoxy-2-methylquinolin-4-yl)oxy)propyl)aniline] had an MIC in data set [3] (setting [11]) of 0.11 µM (≈ 0.0401 µg/mL).
For the compound `Cc1cc(OCCCNc2ccc(Cl)cc2)c2cc(Cl)ccc2n1` [8k, 4-Chloro-N-(3-((6-chloro-2-methylquinolin-4-yl)oxy)propyl)aniline], the MIC in data set [3] (setting [11]) is on record as 0.22 µM (≈ 0.0795 µg/mL).
On to `Cc1cc(OCCCNc2ccc(OC(F)(F)F)cc2)c2cc(Cl)ccc2n1` [8m, N-(3-((6-Chloro-2-methylquinolin-4-yl)oxy)propyl)-4-(trifluoromethoxy)aniline], for which the MIC in data set [3] (setting [11]) came out at 0.19 µM (≈ 0.0781 µg/mL).
On the same count and under the same terms, with `CCc1cc(OCCCNc2ccc(Cl)cc2)c2cc(Cl)ccc2n1` [8o, 4-Chloro-N-(3-((6-chloro-2-ethylquinolin-4-yl)oxy)propyl)aniline] the figure was 0.11 µM (≈ 0.0413 µg/mL); with `CCc1cc(OCCCNc2ccc(Br)cc2)c2cc(Cl)ccc2n1` [8p, 4-Bromo-N-(3-((6-chloro-2-ethylquinolin-4-yl)oxy)propyl)aniline], 0.38 µM (≈ 0.16 µg/mL).
The same measure, in the same setting: for `CCc1ccc(NCCCOc2cc(CC)nc3ccc(Cl)cc23)cc1` [8q, N-(3-((6-chloro-2-ethylquinolin-4-yl)oxy)propyl)-4-ethylaniline] the value was 0.22 µM (≈ 0.0812 µg/mL).
In the case of `Cc1cc(OCCCNc2ccc(Cl)cc2)c2cc(Br)ccc2n1` [8r, N-(3-((6-bromo-2-methylquinolin-4-yl)oxy)propyl)-4-chloroaniline], the CC50 in the data set on HepG2 cells [1] is more than 20 µM; in the data set with Vero cells [2], 11.2 µM; in the data set with Vero cells [5], 19.8 µM; in the data set on HepG2 cells [8], more than 20 µM. In data set [3] (setting [11]), this compound showed an MIC of 0.10 µM (≈ 0.0406 µg/mL). The “MIC PT2” value in data set [4] is less than 0.05 µM. For the same compound, the “MIC PT20” value in [6] is less than 0.05 µM. The “MIC PT12” value in data set [7] was less than 0.05 µM. Also, the “Solubility pH 1.2” value in [9] is on record as >2,470 μM. Further, the “Solubility pH 9.1” value in data set [9] amounted to 57.18 μM. For the same compound, the “Solubility pH 7.4” value in data set [9] is 15.0 μM.
The compound `Cc1cc(OCCCNc2ccc(Br)cc2)c2cc(Br)ccc2n1` [8s, 4-Bromo-N-(3-((6-bromo-2-methylquinolin-4-yl)oxy)propyl)aniline] displayed an MIC in data set [3] (setting [11]) of 0.35 µM (≈ 0.158 µg/mL).
As to `CCc1cc(OCCCNc2ccc(Cl)cc2)c2cc(Br)ccc2n1` [8u, N-(3-((6-bromo-2-ethylquinolin-4-yl)oxy)propyl)-4-chloroaniline], in data set [3] (setting [11]), the MIC was 0.19 µM (≈ 0.0798 µg/mL).
`CCc1cc(OCCCNc2ccc(Br)cc2)c2cc(Br)ccc2n1` [8v, 4-Bromo-N-(3-((6-bromo-2-ethylquinolin-4-yl)oxy)propyl)aniline] registered an MIC in data set [3] (setting [11]) of 0.34 µM (≈ 0.158 µg/mL).
For the compound `NNC(=O)c1ccncc1` [INH, isoniazid, reference compound], in data set [10], the “Kind of effect on intracellular growth of M. tuberculosis H37Rv” value is “bactericidal effect” and the “Log10 CFU/well (Mean ± SD)” value is on record as 2.25 ± 0.15 ^c^, ^d Log10 CFU/well. For the same compound, the “Log10 CFU/well (Mean ± SD)” value in data set [10] (listed as isoniazid) is given as 2.25. In addition, the MIC in data set [3] (Mycobacterium tuberculosis, H37RV) was 2.3 µM (≈ 0.315 µg/mL).
The compound `CCc1nc2ccc(Cl)cn2c1C(=O)NCc1ccc(N2CCC(c3ccc(OC(F)(F)F)cc3)CC2)cc1` [Q203, telacebec, reference compound] displayed an MIC in data set [3] (Mycobacterium tuberculosis, M. tuberculosis H37Rv, resazurin-based assay) of 0.009 µM (≈ 0.00501 µg/mL).
In the case of `C=CCc1ccccc1OCC(O)CNC(C)C` (stereo not shown) [alprenolol], the Papp at 5 h, 10 µM in “in vitro” came to 4.1 ×10⁻⁶ cm/s.
Consider `COc1ccc2nc(C)cc(OCC(=O)Nc3ccccc3OC)c2c1` [compound 1], for which the “MIC (Mtb)” value with Mtb was 0.44 µM (≈ 0.155 µg/mL).
Regarding `COc1ccc2nc(C)cc(OCC(=O)Nc3ccc4ccccc4c3)c2c1` [compound 2], the “MIC (Mtb)” value with Mtb was 0.05 µM (≈ 0.0186 µg/mL).
Regarding `CCCc1ccc(NC(=O)COc2cc(C)nc3ccc(OC)cc23)cc1` [compound 3], the “MIC (Mtb)” value in the data set on Mtb was 0.05 µM (≈ 0.0182 µg/mL).
Turning to `COc1ccc2nc(C)cc(OCc3ccc(Cl)c(Cl)c3)c2c1` [compound 4], the “MIC (Mtb)” value in the data set on Mtb was 0.3 µM (≈ 0.104 µg/mL).
For the compound `COc1ccc2nc(C)cc(OCC(=O)c3cccc(Cl)c3)c2c1` [compound 5], the “MIC (Mtb)” value in the data set on Mtb is 1.8 µM (≈ 0.615 µg/mL).
“N-(3-((6-Chloro-2-methylquinolin-4-yl)oxy)propyl)-4-ethylaniline [8n]”: in data set [3] (setting [11]), the MIC is recorded as 0.03 µM. Moreover, the “MIC PT2” value in [4] is less than 0.06 µM. The “MIC PT20” value in [6] is less than 0.06 µM. Moreover, in data set [7], the “MIC PT12” value is less than 0.06 µM. In addition, in [9], the “Solubility pH 1.2” value is on record as 200 μM, the “Solubility pH 9.1” value worked out at 0.37 μM and the “Solubility pH 7.4” value worked out at 0.06 μM.
Take “N-(3-((6-bromo-2-ethylquinolin-4-yl)oxy)propyl)-4-ethylaniline [8w]”: the CC50 in the data set with HepG2 cells [1] is more than 20 µM; in the data set on Vero cells [2] it was 9.1 µM; in the data set with Vero cells [5], more than 20 µM; with HepG2 cells [8], 8.3 µM. In data set [3] (setting [11]), this compound gave an MIC of 0.10 µM. Besides, in data set [4], the “MIC PT2” value was less than 0.05 µM. In addition, the “MIC PT20” value in [6] is less than 0.05 µM. Besides, in data set [7], the “MIC PT12” value was less than 0.05 µM.
